Source: EP0456204A2, “Use of benzocycloheptathiophenecarboxylic acid derivatives in the treatment of eosinophile accumulation/activation and connected diseases” (SANDOZ LTD., priority 1990, dated 1991)

How the values were obtained:
beagle dogs = experiment: 26-week oral tolerability in beagle dogs; format: in vivo; conditions: up to 200 mg/kg/day P.O for 26 weeks
[1] = Acute toxicity (LD50) in rats; conditions: rat, in vivo, read-out: LD₅₀
Description: (§1) Thus established LD₅₀ values for the COMPOUND D2 in substantially pure form in mice and rats after 14 days p.o. and 7 days i.v. are: in mice, p.o […], i.v. 163 mg/kg; in rats, p.o. 1721 mg/kg, i.v. 50 mg/kg.

[2] = tested on: elevated eosinophil presence in the blood; experiment: Clinical trial 3: utility in hypereosinophilia and eosinophil-related disorders; format: in vivo, subjects (human); conditions: orally 10 to 400mg daily, up to 2 to 3 months
Description: (§2) Suitable individual oral dosages, e.g. for COMPOUNDS D2 and K1 in substantially pure form, in such clinical trials comprise, e.g. from ca. 10 to 800mg, e.g. from ca. 50 to 250mg/day, for example at dosages of ca. 25, 50, 200 or 400mg/day orally administered 1x or in divided doses 2 to 3x daily, for example in encapsulated form as hereinafter described in EXAMPLE F. Both acute (0 to 1 hour) and long-term (up to 12 hour) change in lung function is determined post-medication by measurement of lung function parameters, e.g. as follows: • a) FVC; FEV 0.5; FEV 1.0; FEV 3.0; • b) FEV 0.5/FVC; FEV 1/FVC; FEV 3/FVC; • c) PEF; FEF 25-75%; FEF 75-85%; FEF 25%; FEF 50%; FEF 75%; FEF 0.2-1.2 • d) Flow expiratory curve and flow inspiratory curve. Tolerance of medication and possible occurrence of side effects are also reported. In addition to monitoring of lung function, blood eosinophil levels are also monitored and the incidence of activated eosinophils and eosinophil secretory proteins determined. In individual studies, subjects are also subjected to lung lavage and the presence of eosinophils and platelets and their respective secretory products determined before and after exposure to allergen. […] Initial dosaging for e.g. COMPOUND D2 or COMPOUND K1 in substantially pure form is of the order of from 10 to 800mg, e.g. from ca. 50 to 250mg/day, for example at dosages of ca. 25, 50, 200 or 400mg/day administered, e.g. orally once or in divided dosages 2 to 3x daily with subsequent reduction in appropriate cases to a maintenance dosage of 10 to 400mg/day orally. (Suitable dosage forms are e.g. as hereinafter described in EXAMPLE F). During the course of the trial subjects are monitored continually and all relevant parameters recorded including lung function, alterations in the incidence of activated eosinophils or the release of eosinophil products into the blood or bronchial fluids and, in particular, frequency and severity of asthma exacerbation or attack. Additional bronchodilator therapy is provided on the occasion of any such attack. […] UTILITY IN PNEUMOCONIOSIS/BRONCHITIS The trial is performed analogously to 1.2 above but with groups of subjects having a history of pneumoconiosis or severe bronchitis, e.g. characterised by events of restricted lung function, for example including difficulty in breathing, wheezing, dyspnea or occasional bronchoconstrictor attack and a record of pneumoconiosis- or bronchitis-related work absenteeism. […] COMPOUND D2 or COMPOUND K1 each in substantially pure form is administered daily at oral dosage rates as set forth under 1.2 above, over periods in excess of 2, preferably in excess of 3, months. During the course of the trial, subjects are monitored continually and all relevant parameters are recorded, including basal lung function, frequency of attack with impairment of lung function, requirement for other medication and frequency of absenteeism attributable to disease status. […] In cases where frequent use of alternative medication is recorded at trial entry, reduced need for concomitant medication is also observed as the trial progresses. Similar results are obtainable employing other COMPOUNDS OF THE INVENTION at the same or equivalent dosage rates. • 3. […] COMPOUND D2 or COMPOUND K1 in substantially pure form is administered orally at a daily dosage rate of from 10 to 400mg, e.g. from cam. 50 to 250mg/day, for example at dosages of ca. 25, 50 or 200mg, e.g. in dosage form as hereinafter described in EXAMPLE F. The trial is continued for a period of up to 2 to 3 months. Blood samples are collected regularly during the course of the trial and assayed for blood-eosinophil count, incidence of activated eosinophils and levels of eosinophil secretory proteins. […] Recorded symptomatology attributable to condition is also found to undergo reversal during treatment. Similar results are obtainable employing other COMPOUNDS OF THE INVENTION at the same or equivalent dosage rates.

[3] = tested on: allergic, atopic bronchoconstrictor response; experiment: Clinical trial 1.1: prophylactic efficacy before allergen challenge in obstructive inflammatory airways disease, e.g. asthma; format: in vivo, subjects (human); conditions: oral ca. 10 to 800mg/day, 1 to 2 hours or 1 to 7 days prior to allergen challenge; compared with placebo
Description: (§3) Suitable individual oral dosages, e.g. for COMPOUNDS D2 and K1 in substantially pure form, in such clinical trials comprise, e.g. from ca. 10 to 800mg, e.g. from ca. 50 to 250mg/day, for example at dosages of ca. 25, 50, 200 or 400mg/day orally administered 1x or in divided doses 2 to 3x daily, for example in encapsulated form as hereinafter described in EXAMPLE F. Both acute (0 to 1 hour) and long-term (up to 12 hour) change in lung function is determined post-medication by measurement of lung function parameters, e.g. as follows: • a) FVC; FEV 0.5; FEV 1.0; FEV 3.0; • b) FEV 0.5/FVC; FEV 1/FVC; FEV 3/FVC; • c) PEF; FEF 25-75%; FEF 75-85%; FEF 25%; FEF 50%; FEF 75%; FEF 0.2-1.2 • d) Flow expiratory curve and flow inspiratory curve. Tolerance of medication and possible occurrence of side effects are also reported. In addition to monitoring of lung function, blood eosinophil levels are also monitored and the incidence of activated eosinophils and eosinophil secretory proteins determined. In individual studies, subjects are also subjected to lung lavage and the presence of eosinophils and platelets and their respective secretory products determined before and after exposure to allergen. […] Initial dosaging for e.g. COMPOUND D2 or COMPOUND K1 in substantially pure form is of the order of from 10 to 800mg, e.g. from ca. 50 to 250mg/day, for example at dosages of ca. 25, 50, 200 or 400mg/day administered, e.g. orally once or in divided dosages 2 to 3x daily with subsequent reduction in appropriate cases to a maintenance dosage of 10 to 400mg/day orally. (Suitable dosage forms are e.g. as hereinafter described in EXAMPLE F). During the course of the trial subjects are monitored continually and all relevant parameters recorded including lung function, alterations in the incidence of activated eosinophils or the release of eosinophil products into the blood or bronchial fluids and, in particular, frequency and severity of asthma exacerbation or attack. Additional bronchodilator therapy is provided on the occasion of any such attack. […] During the course of the trial, subjects are monitored continually and all relevant parameters are recorded, including basal lung function, frequency of attack with impairment of lung function, requirement for other medication and frequency of absenteeism attributable to disease status. […] In cases where frequent use of alternative medication is recorded at trial entry, reduced need for concomitant medication is also observed as the trial progresses. […] Recorded symptomatology attributable to condition is also found to undergo reversal during treatment. […]

[4] = tested on: allergen induced eosinophilia; experiment: Influence on allergen induced eosinophilia following inhalation of test compound; bronchoalveolar lavage 24 hrs after challenge; format: in vivo, Male guinea-pigs (Dunkin-Hartley); conditions: inhalation immediately before challenge, 10.0 to 100mg/kg; lavage 24 hrs following challenge
Description: EXAMPLE B: INFLUENCE ON ALLERGEN INDUCED EOSINOPHILIA IN THE GUINEA-PIG FOLLOWING INHALATION
Male guinea-pigs (Dunkin-Hartley) of ca. 300-400g are sensitized employing 10µg amounts of ovalbumin (3x) and applying the technique described in Sanjar et al., Br. J. Pharmacol., 99, 679-686 (1990).
Immediately before challenge COMPOUND OF THE INVENTION, for example COMPOUND D2 or COMPOUND K1 each in substantially pure form, is administered to sensitized animals by inhalation. Administration is effected via a nose-cone either in dry powder with delivery from a brush feed micronising jet mill powder aerosol generator, as described in Bernstein et al. "Aerosols: Science, Technology and Industrial Application of Airborne Particles", Extended Abstract, eds. B.Y.H. Liu. et. al., Elsevier Science, New York, 1984 or in solution from a nebulizer. Antigen challenge or exposure is then carried out, again in accordance with the methods described by Sanjar et. al. loc cit. at p. 680 column 1, employing 10µg ovalbumin in 0.01% solution. Broncheolar lavage is performed 24 hrs following challenge, as follows: • 1. Airway lavage Guinea-pigs are killed by an intraperitoneal injection of pentobarbitone 100mg/kg). The trachea is exposed and cannulated. 10ml of Hank's balanced solution is introduced into the lungs and immediately aspirated by gentle compression of the lung tissue. This procedure is repeated five times. Aspiration fluid is pooled at room temperature in Falcon plastic tubes (60ml). Fluid recovered from the six washes normally exceeds 50ml (85%). The cell suspension is centrifuged (200g for 10 minutes); the supernatant is discarded and the cell pellet resuspended in 1ml of Hank's balanced solution. • 2. Total cell counts 10µl of the 1ml cell suspension is added to 190µl or 90µl (when cell count is low) of Turk's stain (Merck, Darmstadt, Germany) and total cell numbers are determined in a Neubauer (brightline) hemocytometer. The incidence of cells in the 1ml suspension is calculated by multiplying the total cells enumerated in a square of 1mm² by the original dilution viz.: No. of cells counted x dilution x […] = no. of cells/ml. • 3. Differential cell counts The cell suspension is diluted in Hank's balanced solution to obtain a cell concentration of 10⁶ cells per ml. 50µl of this cell suspension is placed in the cytospin (Cytospin 2, Shandon Co.) tube and overlaid by 200µl of buffer. The cytospin is used at 600rpm for 8 minutes. Results for groups of animals receiving COMPOUNDS OF THE INVENTION at varying doses are compared with results for control challenged animals receiving no test substance.

[5] = tested on: pneumoconiosis or severe bronchitis; experiment: Clinical trial 2: utility in pneumoconiosis/bronchitis; format: in vivo, subjects (human); conditions: daily oral dosage as under 1.2, in excess of 2 months; for need for concomitant medication: frequent alternative medication at trial entry
Description: as §2

[6] = tested on: asthma exacerbation or attack; experiment: Clinical trial 1.2: long-term prophylactic efficacy in asthmatic subjects; format: in vivo, asthmatic subjects (human); conditions: 10 to 800mg/day orally; for frequency of asthma exacerbation or attack: at least 2 up to 6 months and more, compared with alternative, non-prophylactic therapy; for need for concomitant (bronchodilator) therapy: at least 2 up to 6 months, subjects initially dependent on methyl-xanthine or β₂-agonist therapy
Description: as §3

[7] = Acute toxicity (LD50) in mice; conditions: mouse, in vivo, read-out: LD₅₀
Description: as §1

[8] = tested on: eosinophil accumulation in the airway lumen; experiment: Suppression of eosinophil accumulation in allergen (ovalbumin) treated, sensitised animals; airway lavage cell counts; format: in vivo, Guinea-pigs (Dunkin-Hartley, male); conditions: for airway eosinophil accumulation compared with untreated controls: 10.0 - 100mg/kg/day as a solution orally for 6 consecutive days prior to challenge, 1 hour prior and seven hours after challenge, lavage 24 hours after challenge
[9] = Tolerability in clinical trials; format: in vivo, human; conditions: oral dosage rates of 50, 200 and 400mg/day
beagle dog = experiment: Pilot toxicological studies in the beagle dog; format: in vivo; conditions: 150 and 200 mg/kg p.o. in gelatin capsules over 5 weeks and in olive oil from week 6 to week 8 on

Row | SMILES | blood-eosinophil count [2] | incidence of activated eosinophils and eosinophil secretory protein levels [2] | recorded symptomatology attributable to condition [2] | eosinophilic response [3] | lung function parameters [3] | eosinophil counts as compared with control groups [4] | neutrophil counts as compared with control groups [4] | total cell counts as compared with control groups [4] | basal lung function [5] | frequency of attack and absenteeism [5] | need for concomitant medication [5] | frequency of asthma exacerbation or attack [6] | need for concomitant (bronchodilator) therapy [6] | airway eosinophil accumulation compared with untreated controls [8] | further results
1 | COC1=Cc2ccccc2C(=CC(=O)O)c2ccsc21 [COMPOUND D2, [10-Methoxy-4H-benzo[4,5]cyclohepta[1,2-b]thiophen-4-ylidene]-acetic acid] | decreased blood-eosinophil count | decreased incidence | reversal | reduction of eosinophilic response | marked improvement | clear reduction | clear reduction | clear reduction | overall improvement | reduced frequency | reduced need | marked reduction | increasingly reduced need | significant reduction | tolerability (beagle dogs): generally well tolerated; LD50 at 168 h ([1]; iv, after 7 days): 50 mg/kg; LD50 at 336 h ([1]; po, after 14 days): 1720 mg/kg; LD50 at 168 h ([7]; iv, after 7 days): 163 mg/kg; LD50 at 336 h ([7]; po, after 14 days): 1620 mg/kg; activity in the subject test model (airway eosinophil accumulation) ([8]; dosages of 10 and 50mg/kg/day s.c.): significant activity; tolerability / side effects [9]: well tolerated with no significant side effect occurrance
2 | COC1=Cc2ccccc2C(=CC(=O)O)c2cc(Cl)sc21 [COMPOUND K1, [2-Chloro-10-methoxy-4H-benzo[4,5]cyclohepta[1,2-b]thiophen-4-ylidene]-acetic acid] | decreased blood-eosinophil count | decreased incidence | reversal |  |  | clear reduction | clear reduction | clear reduction | overall improvement | reduced frequency | reduced need |  |  | significant reduction | pathological effects (beagle dog): no pathological effects
3 | COC1=Cc2ccccc2C(=CC(=O)O)c2cc(Cl)sc21 [COMPOUND K2, [2-Chloro-10-methoxy-4H-benzo[4,5]cyclohepta[1,2-b]thiophen-4-ylidene]-acetic acid] |  |  |  | reduction of eosinophilic response | marked improvement |  |  |  |  |  |  | marked reduction | increasingly reduced need |  | 
